Common to all, as to type: cell-based, Human
The test system of series [1] is SMA lymphoid cells. Briefly: Cell viability by trypan blue dye exclusion. To be noted: 24 hours. As to the method: (§1) 2.5×10^5 lymphoid cells/0.5-ml/well in a 12-well dish were exposed to 0, 2, 5, 10, 20 or 50 μM of EIPA. Viability was determined by trypan blue dye exclusion at 24 hours. To determine the cell growth effect of EIPA, 2.5×10^5 lymphoid cells/0.5-ml/well in a 12-well dish were exposed to 0, 2, 5, 10, 20 or 50 μM of EIPA. 0.5-ml of fresh medium (without or with the same EIPA addition) was added at 72 hours and cell counts made at 120 hours. Referring to FIG. 6A, the cell viability remained at above 90% after treatment of 20 μM (or lower) EIPA for 24 hours, but was down to 60% in 50 WA EIPA medium. Additionally, Referring to FIG. 6B, from a dose response curve of 120 hours in vitro cultures, it was estimated that 8 μM of EIPA cause 50% growth inhibition of SMA lymphoid cells.

The test system of series [2] is SRp20 in SMA lymphoid cell lines. Kind of series: Levels of SR and hnRNP proteins by Western blotting and quantitative densitometry. To be noted: 10 μM EIPA (FIG. 3). As to the method:
SMA lymphoid cell lines were treated with various concentrations of EIPA for 24 hours and then the level of SMN protein by Western blotting and quantitative densitometry were measured. Protein extract preparation and western blot analysis were performed essentially as described previously (Proc Natl Acad Sci USA 2001; 98:9808-9813). Briefly, proteins were resolved by SDS-PAGE and transferred to a polyvinyl difluoride membrane (Millipore). The membrane was blocked with a 5% skim milk solution and then exposed to the appropriate concentrations of primary antibodies for 1 hour at room temperature. […] After washing with TBST (0.05% Tween 20 in TBS), the membrane was incubated for 1 hour with a secondary antibody at a 1:2500 dilution and then detected by ECL chemiluminescence kit (Amersham). Intensity of the signals was measured using LabWorks software (UVP). […]
SMA lymphoid cell lines were treated with EIPA and then the change in the levels of several SR and hnRNP proteins by Western blotting and quantitative densitometry was examined. The protein levels in cytoplasmic and nuclear fractions were also measured separately in order to gain information about subcellular distribution. […]
Background: In western blotting, separated proteins are transferred to a membrane and probed.

Series [3] deals with SMA lymphoid cells. Briefly: Intracellular pH by cytofluorometric SNARF-1 measurement. To be noted: 4 hours, untreated control about 7.40. Here is the method:
Thus, the intracellular pH lowering and cytotoxic effects of EIPA on SMA lymphoid cells were determined. The procedures of cytofluorometric measurement were modified from a published method (J Cell Physiol 1998; 177:109-122). Briefly, three million SMA lymphoid cells were treated with 0, 2, or 10 μM of EIPA in 3 ml of growth medium for 4 hours in a 37° C. CO2 incubator, washed in PBS and then incubated in PBS containing 5 μM of carboxy SNARF-1 AM, acetate (Molecular Probes) for 30 minutes at 37° C., also in the absence or presence of 2 or 10 μM EIPA. The SNARF-1 loaded cells collected by 200×g 10 minutes centrifugation were divided into 7 aliquots, 5 for the calibration standard curves and 2 for sample reading. […] The aliquots for sample reading were suspended in hepes-buffered pH 7.1 and pH 7.4 K^+-BSS, without or with EIPA addition, but in the absence of nigericin. After standing in the darkness at room temperature for 20 minutes, the SNARF-1 fluorescence measurement was performed in a cytofluorometer (FACSAria BD Biosciences) by excitation at 488 nm and fluorescent emissions at 580 (FL-2) and 640 nm (FL-3). The cytofluorometric data was analyzed by using FACSDiVa and CellQuest software to gate the major viable cell populations for producing a standard curve of the 640/580 nm fluorescence ratios (y-axis) versus the high-K BSS buffer pHs (x-axis) of nigericin-treated cells. […]

In series [4] the test system is SMN2 exon 7 splicing in SMA lymphoid cell lines. Kind of series: SMN2 exon 7-containing versus exon 7-lacking transcripts by RT-PCR and quantitative densitometry. As to the method:
Human SMA lymphoid cell lines were treated with several 5-(N-ethyl-N-isopropyl)-amiloride and then the relative levels of SMN2 exon 7-containing versus exon 7-lacking transcripts by RT-PCR and quantitative densitometry (Proc Natl Acad Sci USA 2001; 98:9808-9813) were measured. Human lymphoblast cell lines were established from SMA patients with homozygous SMN1 deletion in our laboratory by Epstein-Barr virus transformation as described in Proc Natl Acad Sci USA 2001; 98:9808-9813. The cells were grown in RPMI-1640 medium supplemented with 2 mM L-glutamine, 10% fetal bovine serum (FBS), 100 units/ml penicillin and 100 μg/ml streptomycin at 37° C. in a humidified atmosphere containing 5% CO2. The SMA lymphoid cell lines derived from 6 SMA patients included 2 type I, 2 type II and 2 type III. The cells were treated with various concentrations of EIPA for 24 hours to determine the dosage effect and exposed to 10 μM of EIPA and harvested at different time intervals (2-24 hours). […] Thus, EIPA promoted SMN2 exon 7 inclusion in a dose-dependent and time-related manner in SMA cells.

Series [5] deals with SMN protein in SMA lymphoid cell lines. Kind of series: SMN protein level by Western blotting and quantitative densitometry. To be noted: 24 hours. As to the method:
SMA lymphoid cell lines were treated with various concentrations of EIPA for 24 hours and then the level of SMN protein by Western blotting and quantitative densitometry were measured. Protein extract preparation and western blot analysis were performed essentially as described previously (Proc Natl Acad Sci USA 2001; 98:9808-9813). Briefly, proteins were resolved by SDS-PAGE and transferred to a polyvinyl difluoride membrane (Millipore). The membrane was blocked with a 5% skim milk solution and then exposed to the appropriate concentrations of primary antibodies for 1 hour at room temperature. The following primary antibodies were used: mouse monoclonal anti-SMN (BD Biosciences, 1:5,000), mouse monoclonal anti-SR 16H3 (Zymed, 1:500), mouse monoclonal anti-SRp20 (Zymed, 1:500), mouse monoclonal anti-hnRNP A 1 (Acris, 1:1000), mouse monoclonal anti-hnRNP A2/B1 (Acris, 1:1000), mouse monoclonal anti-Sam68 (Santa Cruz, 1:500), mouse monoclonal anti-SF2/ASF (Zymed, 1:2000), mouse monoclonal anti-Akt (Cell Signaling, 1:1000), mouse monoclonal anti-phosphorylated Akt (Cell Signaling, 1:1000), mouse monoclonal anti-α-tubulin (Abeam, 1:5000), and mouse monoclonal anti-β-tubulin (Santa Cruz, 1:2000). After washing with TBST (0.05% Tween 20 in TBS), the membrane was incubated for 1 hour with a secondary antibody at a 1:2500 dilution and then detected by ECL chemiluminescence kit (Amersham). Intensity of the signals was measured using LabWorks software (UVP). Referring to FIG. 2, in the cytoplasm, the SMN protein level of EIPA-treated SMA cell was 1.8-, 1.4-, and 2.6-fold higher than untreated cell lines. In the nucleus, the SMN protein level at 2, 10 and 50 μM EIPA was 2.2-, 2.0-, and 3.3-fold higher than untreated cell lines.

For series [6], the system named is SMA lymphoid cells. Briefly: Cell growth assay (cell counts at 120 hours). To be noted: 120 hours in vitro cultures, from dose response curve; read-out: concentration causing 50% growth inhibition of SMA lymphoid cells. As to the method: as §1

This note sets out measurements from US8367678B2, “Treatment for spinal muscular atrophy” (Kaohsiung Medical University, priority 2008, dated 2013).

In the case of `CCN(c1nc(N)c(C(=O)N=C(N)N)nc1Cl)C(C)C` [EIPA, 5-(N-ethyl-N-isopropyl)-amiloride], the figures for the cell viability entry in the series on SMA lymphoid cells [1] (20 μM (or lower) EIPA) and in the series with SMA lymphoid cells [1] (50 μM EIPA medium) were “above 90%” and 60%, respectively. Further, the “increase of the level of SRp20 in the nucleus” value in series [2] is on record as “approximately 4 fold”. Further, the “intracellular pH (pHi)” value worked out at 7.15±0.10 in the series on SMA lymphoid cells [3] (2 μM EIPA) and 7.03±0.15 in the series on SMA lymphoid cells [3] (10 μM EIPA). Further, the “ratio of SMN2 exon 7-containing to exon 7-lacking transcripts” value in series [4] (2 μM EIPA, 24 hours, SMA lymphoid cell lines) is “increased significantly”; in series [4] (10 μM EIPA, 24 hours, SMA lymphoid cell lines), “increased significantly”; in series [4] (10 μM EIPA, at 4 hours after the treatment), “significantly increased”; in series [4] (50 μM EIPA, 24 hours, SMA lymphoid cell lines), “increased significantly”. The “SMN protein level in the cytoplasm versus untreated cell lines” value came out at 1.8 fold in series [5] (first listed concentration (2 μM EIPA)), 1.4 fold in series [5] (second listed concentration (10 μM EIPA)) and 2.6 fold in series [5] (third listed concentration (50 μM EIPA)). Also, the “SMN protein level in the nucleus versus untreated cell lines” value in series [5] (2 μM EIPA) worked out at 2.2 fold; in series [5] (10 μM EIPA), 2.0 fold; in series [5] (50 μM EIPA) it was 3.3 fold. The IC50 in the series on SMA lymphoid cells [6] was roughly 8 µM.

Usually cell viability stands for a per cent measure of how many cells are alive, often set against a control. The low end stands for more harm to the cells, the high end for less harm to the cells.
